Data published in PMC7031696 (Cell chemical biology, 2019).
Entries after “also recorded” stand apart in the source; their conditions may differ. Like-named read-outs stand apart in the source and are kept apart here.

Tests used:
[1] = tested on: Plasmodium falciparum 3D7-A10 parasites; assay: Stage specificity assay (8-h exposure of synchronized stages, IC50^8h); type: cell-based; conditions: for IC50: Plasmodium falciparum
[2] = tested on: asynchronous 3D7-A10 parasite cultures; assay: Standard 72-h exposure asexual blood stage susceptibility assay (IC50^72h); type: cell-based, Plasmodium falciparum; conditions: Plasmodium falciparum, 3D7, 72 h, read-out: Overall (72hr assay) Mean IC50 (IC50^72h)
[3] = physchem; conditions: pH 7.4, aqueous buffer, kinetic from dmso stock
[4] = tested on: 3D7-MR4 trophozoite parasite-infected RBCs; assay: Metabolomic profiling (hydrophilic metabolite changes, UHPLC-MS); type: cell-based, Plasmodium falciparum
[5] = tested on: 3D7-MR4 trophozoite parasite-infected RBCs; conditions: 10 × IC50^72h; ref Allman et al., 2016; cited from earlier work
[6] = 3D7, read-out: Early rings Mean IC50 (IC50^8h), 8-h exposure 0–8 hr, 3D7-A10, survival at 60 h
[7] = 3D7, read-out: Early trophozoites Mean IC50 (IC50^8h), 8-h exposure 16–24 hr, 3D7-A10, survival at 60 h
[8] = 3D7, read-out: Late rings Mean IC50 (IC50^8h), 8-h exposure 8–16 hr, 3D7-A10, survival at 60 h
[9] = 3D7, read-out: Late trophozoites Mean IC50 (IC50^8h), 8-h exposure 24–32 hr, 3D7-A10, survival at 60 h
[10] = 3D7, read-out: Schizonts Mean IC50 (IC50^8h), 8-h exposure 32–40 hr, 3D7-A10, survival at 60 h

With `C[C@H]1[C@@H](O)O[C@@H]2O[C@@]3(C)CC[C@H]4[C@H](C)CC[C@@H]1[C@@]24OO3` [Dihydroartemisinin, reference compound] the “overall activity profile (stages on which active)” value ([1]; 8-h exposures) was “activity on all stages”, the IC50 [1, 6] was 1.5 nM and the IC50 [1, 7] was 2.4 nM. For the same compound, the IC50 [1, 8] was 2.4 nM, the IC50 [1, 9] was 3.9 nM and the IC50 [1, 10] was 11.6 nM. The “Stage of peak activity (Figure 6)” value ([1]; period when the parasite was most susceptible (lowest IC50^8h)) was “ring and trophozoite stages; also recorded: rings and trophozoites”, the IC50 [2] was 1 nM and the solubility at 1.5 h [3] was at least 500 µM.

With `COCCNCC(O)Cn1c2ccc(Cl)cc2c2cc(Cl)ccc21` (stereo not shown) [MMV019017] the “Ratio lowest IC50 8hr/IC50 72hr” value ([1]; 3D7-A10) was 4.4, the IC50 ([1]; 3D7, 8 h, read-out: IC50^8h values at all tested stages, 8-h exposures, all asexual blood stages) was over 1000 nM and the IC50 [1, 6] was 8420 nM. The IC50 [1, 7] was 1340 nM, the IC50 [1, 8] was 8660 nM and the IC50 [1, 9] was 1710 nM. The IC50 [1, 10] was 3060 nM, the IC50 [2] was 306 nM and the “Log2(fold changes) 3-phosphoglycerate” value ([4]; metabolite 3-phosphoglycerate, log2 fold change) was -0.1375. The “Log2(fold changes) 4-Pyridoxic acid” value ([4]; metabolite 4-Pyridoxic acid, log2 fold change) was 0.0658, the “Log2(fold changes) 4-aminobutyrate” value ([4]; metabolite 4-aminobutyrate, log2 fold change) was 1.1150 and the “Log2(fold changes) 4-phosphopantetheine” value ([4]; metabolite 4-phosphopantetheine, log2 fold change) was 0.0000. The “Log2(fold changes) 4-phosphopantothenate” value ([4]; metabolite 4-phosphopantothenate, log2 fold change) was -1.0497, the “Log2(fold changes) 5-aminopentanoic acid” value ([4]; metabolite 5-aminopentanoic acid, log2 fold change) was 0.0000 and the “Log2(fold changes) 5-methyl-THF” value ([4]; metabolite 5-methyl-THF, log2 fold change) was 0.0000. The “Log2(fold changes) 5-phosphoribosyl-1-pyrophosphate” value ([4]; metabolite 5-phosphoribosyl-1-pyrophosphate, log2 fold change) was -1.1636, the “Log2(fold changes) 6-phospho-D-gluconate” value ([4]; metabolite 6-phospho-D-gluconate, log2 fold change) was -0.4356 and the “Log2(fold change) HVDD” value ([4]; metabolite HVDD) was 0.0000. The “Log2(fold change) Hydroxyisocaproic acid” value ([4]; metabolite Hydroxyisocaproic acid) was 0.0000, the “Log2(fold change) IDP” value ([4]; metabolite IDP) was 0.0000 and the “Log2(fold change) IMP” value ([4]; metabolite IMP) was 0.0176. For the same compound, the “Log2(fold change) Inositol” value ([4]; metabolite Inositol) was 0.0000, the “Log2(fold change) Isopentyl-PP” value ([4]; metabolite Isopentyl-PP) was 0.0000 and the “Log2(fold change) L-arginino-succinate” value ([4]; metabolite L-arginino-succinate) was 0.0000. For the same compound, the “Log2(fold change) LD” value ([4]; metabolite LD) was -2.3846, the “Log2(fold change) Myristoyl/tetradecanoyl-CoA” value ([4]; metabolite Myristoyl/tetradecanoyl-CoA) was 0.0000 and the “Log2(fold change) N-Acetyl-L-alanine” value ([4]; metabolite N-Acetyl-L-alanine) was -0.1766. For the same compound, the “Log2(fold change) N-acetyl-L-ornithine” value ([4]; metabolite N-acetyl-L-ornithine) was -1.7936, the “Log2(fold change) N-acetyl-glucosamine-1/6-phosphate” value ([4]; metabolite N-acetyl-glucosamine-1/6-phosphate) was -1.5222 and the “Log2(fold change) N-acetyl-glutamate” value ([4]; metabolite N-acetyl-glutamate) was 0.3951. The “Log2(fold change) N-acetyl-glutamine” value ([4]; metabolite N-acetyl-glutamine) was 0.6689, the “Log2(fold change) N-carbamoyl-L-aspartate” value ([4]; metabolite N-carbamoyl-L-aspartate) was -1.9472 and the “Log2(fold change) NAD+” value ([4]; metabolite NAD+) was -0.1399. The “Log2(fold change) NADH” value ([4]; metabolite NADH) was 0.8540, the “Log2(fold change) NADP+” value ([4]; metabolite NADP+) was 0.2168 and the “Log2(fold change) NADPH” value ([4]; metabolite NADPH) was 0.4083. For the same compound, the “Log2(fold change) O-acetyl-L-serine” value ([4]; metabolite O-acetyl-L-serine) was 0.0000, the “Log2(fold change) Octoluse 8/1P” value ([4]; metabolite Octoluse 8/1P) was -0.2135 and the “Log2(fold change) Octoluse Bisphosphate” value ([4]; metabolite Octoluse Bisphosphate) was -5.4193. For the same compound, the “Log2(fold change) PD” value ([4]; metabolite PD) was -1.1341, the “Log2(fold change) PE” value ([4]; metabolite PE) was 0.0923 and the “Log2(fold change) PEE” value ([4]; metabolite PEE) was 0.2942. For the same compound, the “Log2(fold change) PEEK” value ([4]; metabolite PEEK) was -0.4238, the “Log2(fold change) PVNF” value ([4]; metabolite PVNF) was -4.6843 and the “Log2(fold change) Pyroglutamic acid” value ([4]; metabolite Pyroglutamic acid) was 0.4950. For the same compound, the “Log2(fold change) Pyrophosphate” value ([4]; metabolite Pyrophosphate) was -2.5918, the “Log2(fold change) Ribose-5-phosphate” value ([4]; metabolite Ribose-5-phosphate) was 0.0000 and the “Log2(fold change) S-adenosyl-L-homocysteine” value ([4]; metabolite S-adenosyl-L-homocysteine) was -0.4383. The “Log2(fold change) S-adenosyl-L-methioninamine” value ([4]; metabolite S-adenosyl-L-methioninamine) was 0.0000, the “Log2(fold change) S-adenosyl-L-methionine” value ([4]; metabolite S-adenosyl-L-methionine) was 0.0000 and the “Log2(fold change) S-methyl-5'-thioadenosine” value ([4]; metabolite S-methyl-5'-thioadenosine) was 0.0000. For the same compound, the “Log2(fold change) SD” value ([4]; metabolite SD) was -1.6540, the “Log2(fold change) SDL” value ([4]; metabolite SDL) was 0.0000 and the “Log2(fold change) SID” value ([4]; metabolite SID) was 0.0000. For the same compound, the “Log2(fold change) Sedoheptulose bisphosphate” value ([4]; metabolite Sedoheptulose bisphosphate) was -1.7256, the “Log2(fold change) Thiamine pyrophosphate” value ([4]; metabolite Thiamine pyrophosphate) was 0.0000 and the “Log2(fold changes) UDP-D-glucose” value ([4]; metabolite UDP-D-glucose, log2 fold change) was 0.0449. For the same compound, the “Log2(fold changes) UDP-D-glucuronate” value ([4]; metabolite UDP-D-glucuronate, log2 fold change) was -0.4277, the “Log2(fold changes) UDP-N-acetyl-glucosamine” value ([4]; metabolite UDP-N-acetyl-glucosamine, log2 fold change) was -0.2402 and the “Log2(fold changes) UDP” value ([4]; metabolite UDP, log2 fold change) was -1.4536. For the same compound, the “Log2(fold changes) UMP” value ([4]; metabolite UMP, log2 fold change) was -0.1145, the “Log2(fold changes) UTP” value ([4]; metabolite UTP, log2 fold change) was -1.8511 and the “Log2(fold change) hydroxyphenylpyruvate” value ([4]; metabolite hydroxyphenylpyruvate) was 0.0000. The “Log2(fold change) hydroxyproline/Aminolevulinate” value ([4]; metabolite hydroxyproline/Aminolevulinate) was 0.0000, the “Log2(fold change) hypoxanthine” value ([4]; metabolite hypoxanthine) was 1.0399 and the “Log2(fold change) indole” value ([4]; metabolite indole) was 0.2468. The “Log2(fold change) inosine” value ([4]; metabolite inosine) was 0.3793, the “Log2(fold change) isoleucine” value ([4]; metabolite isoleucine) was 0.0000 and the “Log2(fold change) lactate” value ([4]; metabolite lactate) was -0.6725. The “Log2(fold change) leucine” value ([4]; metabolite leucine) was 0.0000, the “Log2(fold change) lysine” value ([4]; metabolite lysine) was 0.0000 and the “Log2(fold change) malate” value ([4]; metabolite malate) was 0.0811. For the same compound, the “Log2(fold change) maleic acid” value ([4]; metabolite maleic acid) was 0.0000, the “Log2(fold change) methionine” value ([4]; metabolite methionine) was 0.0000 and the “Log2(fold change) myo-inositol” value ([4]; metabolite myo-inositol) was -2.8253. The “Log2(fold change) nicotinamide mononucleotide” value ([4]; metabolite nicotinamide mononucleotide) was 0.0000, the “Log2(fold change) nicotinate” value ([4]; metabolite nicotinate) was 1.9078 and the “Log2(fold change) ornithine” value ([4]; metabolite ornithine) was 0.0801. For the same compound, the “Log2(fold change) orotate” value ([4]; metabolite orotate) was 1.9702, the “Log2(fold change) orotidine-5'-phosphate” value ([4]; metabolite orotidine-5'-phosphate) was 0.0000 and the “Log2(fold change) oxaloacetate” value ([4]; metabolite oxaloacetate) was 0.0000. For the same compound, the “Log2(fold change) p-aminobenzoate” value ([4]; metabolite p-aminobenzoate) was 0.0000, the “Log2(fold change) p-hydroxybenzoate” value ([4]; metabolite p-hydroxybenzoate) was 0.7031 and the “Log2(fold change) pantothenate” value ([4]; metabolite pantothenate) was 0.0000. The “Log2(fold change) phenylalanine” value ([4]; metabolite phenylalanine) was 0.0000, the “Log2(fold change) phenylpyruvate” value ([4]; metabolite phenylpyruvate) was 1.2139 and the “Log2(fold change) phosphoenolpyruvate” value ([4]; metabolite phosphoenolpyruvate) was 0.7560. For the same compound, the “Log2(fold change) prephenate” value ([4]; metabolite prephenate) was 0.0000, the “Log2(fold change) proline” value ([4]; metabolite proline) was 0.0000 and the “Log2(fold change) pyridoxine” value ([4]; metabolite pyridoxine) was 0.0000. The “Log2(fold change) pyruvate” value ([4]; metabolite pyruvate) was -0.9980, the “Log2(fold change) riboflavin” value ([4]; metabolite riboflavin) was 0.0000 and the “Log2(fold change) ribose” value ([4]; metabolite ribose) was 0.0000. For the same compound, the “Log2(fold change) ribose-phosphate” value ([4]; metabolite ribose-phosphate) was -0.9470, the “Log2(fold change) ribulose-5-phosphate” value ([4]; metabolite ribulose-5-phosphate) was 0.0000 and the “Log2(fold change) serine” value ([4]; metabolite serine) was 0.0000. For the same compound, the “Log2(fold change) sn-glycerol-3-phosphate” value ([4]; metabolite sn-glycerol-3-phosphate) was 0.0194, the “Log2(fold change) succinate/Methylmalonic acid” value ([4]; metabolite succinate/Methylmalonic acid) was 0.4365 and the “Log2(fold change) succinyl-CoA/methylmalonyl-CoA” value ([4]; metabolite succinyl-CoA/methylmalonyl-CoA) was 0.0000. The “Log2(fold change) taurine” value ([4]; metabolite taurine) was 0.0000, the “Log2(fold change) thiamine” value ([4]; metabolite thiamine) was 0.0000 and the “Log2(fold change) threonine/homoserine” value ([4]; metabolite threonine/homoserine) was 0.0000. For the same compound, the “Log2(fold change) thymidine” value ([4]; metabolite thymidine) was -1.7681, the “Log2(fold changes) thymine” value ([4]; metabolite thymine, log2 fold change) was -1.7003 and the “Log2(fold changes) trehalose-6-Phosphate” value ([4]; metabolite trehalose-6-Phosphate, log2 fold change) was 0.0000. For the same compound, the “Log2(fold changes) tryptophan” value ([4]; metabolite tryptophan, log2 fold change) was 0.0000, the “Log2(fold changes) tyrosine” value ([4]; metabolite tyrosine, log2 fold change) was 0.0000 and the “Log2(fold changes) uridine” value ([4]; metabolite uridine, log2 fold change) was -0.5758. For the same compound, the “levels of cAMP” value [5] was “decreased”, the “levels of the deoxyribonucleotides dAMP and dTMP” value [5] was “increased” and the “nucleoside di- and tri-phosphate levels (GDP, UDP, GTP, dATP, dGTP/ATP, dUTP)” value [5] was “decreased”. For the same compound, the “peptide levels (hemoglobin catabolism signature)” value [5] was “decreased peptide levels”.
